Measured values: patent US12570612B2, “Substituted nitrogen heterocyclic compound and anesthetic effect thereof” (priority 2019, dated 2026)
Like-named read-outs stand apart in the source and are kept apart here.

Columns and labels:
[1] = system: Sprague-Dawley rats; assay: animal or person; type: in vivo; conditions: rats; for ED50: LORR, up and down method, tail vein, class symbols
Source text: Evaluating indicator: The end point of anesthesia: LORR was used as the end point of anesthesia; General anesthesia effect: the disappearance of forepaw righting reflex in rats lasting for 30 seconds is taken as the index of general anesthesia effect; Anesthesia recovery index: the recovery of rat forepaw righting reflex was used as the index of anesthesia recovery.

[2] = system: Sprague-Dawley rats; assay: Pharmacological effect and adverse reactions under the equivalent dose (2ED50), Group C compounds; type: in vivo; conditions: for Righting reflex duration / Sedation duration / Onset time: 2ED50, tail vein, rats, n=8; for Onset time: unit s; for Adverse reaction: Convulsions / Adverse reaction: Cough, broken-winded / Adverse reaction: Euphoria / Adverse reaction: Red urine / Adverse reaction: Slower breathing, Tetany convulsion / Adverse reaction: Systemic stiffness, Convulsions, Opisthotonus / Adverse reaction: Tongue stretching / Adverse reaction: Tremor / Adverse reaction: the four limbs rigidity: equivalent dose (2ED50), number of rats of n = 8
Source text: Evaluation index: onset time: from the completion of drug injection to the disappearance of forepaw righting reflex in rats; Duration of anesthesia: the time from the disappearance of rat forepaw righting reflex to the recovery of rat forepaw righting reflex; Recovery time of anesthesia: the time from the […] to complete recovery;

[3] = system: SD rats; conditions: for After the infusion is stopped: Righting reflex recovery time / Recovery time after stopping infusion: after 1 hour continuous infusion at 2 times the MIR; for After the infusion is stopped: Righting reflex recovery time / Recovery time after stopping infusion / Sedation onset time: SD rats; for Sedation onset time: continuous tail vein infusion at 2 times the MIR
Method: Experimental Methods: Adult male SD rats with body weight ranging from 250 g to 350 g were selected for continuous infusion test.
Evaluation indexes: the time from the beginning of continuous infusion to the […] of sedation in rats; the time from the cessation of infusion to the restoration of the forepaw turning reflex after 1 hour of continuous infusion; the time from the cessation of infusion to the complete restoration of rats after 1 hour of continuous infusion.

[4] = system: Sprague-Dawley rats; type: in vivo; conditions: tail vein
[5] = Rattus norvegicus, read-out: ED50
[6] = continuous infusion 2 x MIR 1 hour, rats affected/rats

SMILES | ED50 [1, 5] [mg/kg] | Approximate therapeutic index [1] | Righting reflex duration [2] [min] | Sedation duration [2] [min] | Onset time [2] [s] | Adverse reaction: Convulsions [2] | Adverse reaction: Cough, broken-winded [2] | Adverse reaction: Euphoria [2] | Adverse reaction: Red urine [2] | Adverse reaction: Slower breathing, Tetany convulsion [2] | Adverse reaction: Systemic stiffness, Convulsions, Opisthotonus [2] | Adverse reaction: Tongue stretching [2] | Adverse reaction: Tremor [2] | Adverse reaction: the four limbs rigidity [2] | Minimal lethal dose [4] [mg/kg] | other results
C[C@H](c1ccccc1)n1cncc1C(=O)COCCC1CCC1 [Compound C40] | 0.5 to 1 | >13.8 | 3.76 ± 1.75 | 10.48 ± 2.58 | <30 | 1 | 0 | 0 | 8 | 1 | 1 | 0 | 0 | 0 | >8.3 | After the infusion is stopped: Righting reflex recovery time [3]: 16 to 20 min; Recovery time after stopping infusion [3]: 27 to 35 min; Types and incidence of adverse reactions: Red urine [3, 6]: 6/6; Types and incidence of adverse reactions: Tremor [3, 6]: 2/6; Sedation onset time [3]: <5 min
CCOCC(=O)c1cncn1[C@H](C)c1ccccc1 [Compound C34] | 2 to 10 | >2.6 | 2.26 ± 0.81 | 4.89 ± 0.98 | <30 | 0 | 0 | 1 | 8 | 0 | 6 | 1 | 0 | 0 | >12.8 | After the infusion is stopped: Righting reflex recovery time [3]: 15 to 20 min; Recovery time after stopping infusion [3]: 22 to 28 min; Types and incidence of adverse reactions: Red urine [3, 6]: 6/6; Types and incidence of adverse reactions: Tongue stretching [3, 6]: Tongue stretching(4/6); Types and incidence of adverse reactions: Tremor [3, 6]: 2/6; Sedation onset time [3]: <5 min
CCSCC(=O)c1ccnn1[C@H](C)c1ccccc1 [Compound C9, (R)-2-(ethylthio)-1-(1-(1-phenylethyl)-1H-pyrazol-5-yl)ethan-1-one] | 2 to 10 | >2.1 | 1.56 ± 0.89 | 6.62 ± 0.72 | <30 | 0 | 0 | 0 | 8 | 0 | 0 | 0 | 0 | 0 | >10.2 | 
C#CCOCC(=O)c1c(F)ncn1[C@H](C)c1ccccc1 [Compound C73] | 0.04 to 0.5 | >23.4 | 1.24 ± 0.56 | 6.76 ± 1.49 | <30 | 0 | 0 | 0 | 8 | 0 | 2 | 0 | 0 | 1 | >4.0 | 
CC(=O)COCC(=O)c1cncn1[C@H](C)c1ccccc1 [Compound C51] | 1 to 2 | >8.3 | 2.89 ± 0.68 | 4.62 ± 1.02 | <30 | 0 | 0 | 0 | 8 | 0 | 0 | 0 | 2 | 0 | >12.5 | 
C/C=C\C(=O)c1cncn1[C@H](C)c1ccccc1 [Compound C55] | 2 to 10 | >16.6 | 1.83 ± 0.30 | 6.26 ± 2.45 | <30 | 0 | 0 | 0 | 8 | 0 | 7 | 0 | 0 | 0 | >13.61 | 
CCC(CC)OCC(=O)c1cncn1[C@H](C)c1ccccc1 [Compound C36] | 2 to 10 | >3.0 | 4.02 ± 1.09 | 15.57 ± 4.94 | <30 | 0 | 0 | 0 | 8 | 0 | 0 | 0 | 0 | 3 | >15.2 | 
C[C@H](c1ccccc1)n1cncc1C(=O)COC1CCC1 [Compound C28] |  | >2.4 | 1.91 ± 0.65 | 5.63 ± 0.62 | <30 | 0 | 0 | 0 | 8 | 0 | 0 | 0 | 1 | 0 | >11.8 | 
C[C@H](c1ccccc1)n1cncc1C(=O)COCC1CC1 [Compound C46] | 2 to 10 | >2.4 | 1.82 ± 0.64 | 5.63 ± 1.52 | <30 | 0 | 0 | 0 | 8 | 0 | 0 | 1 | 1 | 0 | >11.8 | 
CC#CCOCC(=O)c1c(F)ncn1[C@H](C)c1ccccc1 [Compound C69] | 0.04 to 0.5 | >19.2 | 1.91 ± 0.68 | 6.28 ± 1.62 | <30 | 0 | 0 | 0 | 8 | 0 | 1 | 0 | 0 | 0 | >4.2 | 
C[C@H](c1ccccc1)n1cnc(F)c1C(=O)COCC1CCC1 [Compound C70] |  | >18.2 | 1.35 ± 0.61 | 5.30 ± 1.14 | <30 | 0 | 0 | 4 | 8 | 0 | 0 | 0 | 0 | 6 | >6.4 | ED50 [1]: + (+ indicates that the measured ED50 is in the range of 0.04-0.50 mg/kg (including 0.04 and 0.50 mg/kg))
COCC(=O)c1cncn1[C@H](C)c1ccccc1 [Compound C33] |  | >2.8 | 1.62 ± 0.85 | 4.43 ± 0.92 | <30 | 0 | 0 | 0 | 8 | 0 | 0 | 0 | 1 | 0 | >14.2 | 
CCC(CC)OCC(=O)c1c(F)ncn1[C@H](C)c1ccccc1 [Compound C78] | 0.5 to 1 | >14.3 | 2.59 ± 0.99 | 7.30 ± 1.85 | <30 | 0 | 0 | 0 | 8 | 0 | 0 | 1 | 0 | 1 | >11.5 | 
